Values of other authors as cited in patent US8067462B2, “Processes of making sesquiterpenoid tashironin, its analogs and their uses” (The Trustees of Columbia University in the City of New York, priority 2004, dated 2011).

Tested on: neurite growth

| Compound | concentration at which neurite growth is promoted (promotes neurite growth at concentrations as low as (Huang et al. 2001)) [µmol] | neurotrophic activity (reported on isolation from the wood of illicium tashiroi (Fukuyama et al. 1995)) |
| --- | --- | --- |
| C[C@@H]1CC[C@@]2(O)C13CC(=O)C1(C)C2(C)CO[C@]1(O)[C@@H]3O [11-O-debenzoyltashironin] | ≥ 0.1 | – |
| tashironin | – | inactive |
